Where “and” joins values, the source holds several entries; their conditions need not be identical. Equal values may be shown once.
O=C(C(F)(F)C(F)(F)F)C(F)(C(F)(F)F)C(F)(F)F [dodecafluoro-2-methylpentan-3-one]
Conditions | thermal conductivity
387.99 K, 395 kPa, Gas, hot wire | 0.0199 W/m/K
388 K, 395 kPa, Gas, hot wire | 0.01971 W/m/K
388.06 K, 258 kPa, Gas, hot wire | 0.01842 W/m/K
388.07 K, 128 kPa, Gas, hot wire | 0.01819 W/m/K and 0.01818 W/m/K
388.08 K, 257 kPa, Gas, hot wire | 0.01826 W/m/K
388.1 K, 26 kPa, Gas, hot wire | 0.01771 W/m/K and 0.01756 W/m/K
388.1 K, 394 kPa, Gas, hot wire | 0.01994 W/m/K
388.1 K, 395 kPa, Gas, hot wire | 0.01983 W/m/K
388.18 K, 257 kPa, Gas, hot wire | 0.01851 W/m/K
388.19 K, 128 kPa, Gas, hot wire | 0.01818 W/m/K
388.19 K, 256 kPa, Gas, hot wire | 0.0184 W/m/K
388.2 K, 128 kPa, Gas, hot wire | 0.01804 W/m/K
388.2 K, 395 kPa, Gas, hot wire | 0.01983 W/m/K
388.22 K, 394 kPa, Gas, hot wire | 0.01966 W/m/K
388.23 K, 26 kPa, Gas, hot wire | 0.01766 W/m/K and 0.0176 W/m/K
388.3 K, 256 kPa, Gas, hot wire | 0.01853 W/m/K
388.31 K, 256 kPa, Gas, hot wire | 0.01853 W/m/K
388.31 K, 396 kPa, Gas, hot wire | 0.01994 W/m/K
388.32 K, 395 kPa, Gas, hot wire | 0.01985 W/m/K
388.33 K, 127 kPa, Gas, hot wire | 0.01792 W/m/K
388.33 K, 128 kPa, Gas, hot wire | 0.01804 W/m/K
388.36 K, 26 kPa, Gas, hot wire | 0.0176 W/m/K
388.37 K, 26 kPa, Gas, hot wire | 0.01755 W/m/K
388.43 K, 254 kPa, Gas, hot wire | 0.01861 W/m/K
388.43 K, 255 kPa, Gas, hot wire | 0.01863 W/m/K
388.43 K, 396 kPa, Gas, hot wire | 0.01991 W/m/K
388.45 K, 397 kPa, Gas, hot wire | 0.01966 W/m/K
388.47 K, 127 kPa, Gas, hot wire | 0.01796 W/m/K
388.48 K, 127 kPa, Gas, hot wire | 0.0179 W/m/K
388.49 K, 516 kPa, Gas, transient hot wire | 0.01836 W/m/K
388.5 K, 26 kPa, Gas, hot wire | 0.01759 W/m/K
388.51 K, 26 kPa, Gas, hot wire | 0.01751 W/m/K
388.53 K, 395 kPa, Gas, transient hot wire | 0.01832 W/m/K
388.56 K, 254 kPa, Gas, hot wire | 0.01874 W/m/K
388.56 K, 255 kPa, Gas, hot wire | 0.01872 W/m/K
388.62 K, 127 kPa, Gas, hot wire | 0.01791 W/m/K
388.62 K, 257 kPa, Gas, transient hot wire | 0.01852 W/m/K
388.65 K, 26 kPa, Gas, hot wire | 0.01756 W/m/K
388.66 K, 26 kPa, Gas, hot wire | 0.01755 W/m/K
388.67 K, 515 kPa, Gas, transient hot wire | 0.01836 W/m/K
388.68 K, 516 kPa, Gas, transient hot wire | 0.01848 W/m/K
388.72 K, 394 kPa, Gas, transient hot wire | 0.01847 W/m/K
388.73 K, 395 kPa, Gas, transient hot wire | 0.01843 W/m/K
388.77 K, 619 kPa, Gas, transient hot wire | 0.01829 W/m/K
388.79 K, 619 kPa, Gas, transient hot wire | 0.0182 W/m/K
388.81 K, 257 kPa, Gas, transient hot wire | 0.01868 W/m/K
388.82 K, 256 kPa, Gas, transient hot wire | 0.01825 W/m/K
388.87 K, 514 kPa, Gas, transient hot wire | 0.01853 W/m/K
388.93 K, 394 kPa, Gas, transient hot wire | 0.01809 W/m/K and 0.01843 W/m/K
388.98 K, 619 kPa, Gas, transient hot wire | 0.01836 W/m/K and 0.01835 W/m/K
389.04 K, 256 kPa, Gas, transient hot wire | 0.01865 W/m/K
389.05 K, 256 kPa, Gas, transient hot wire | 0.01868 W/m/K
389.08 K, 515 kPa, Gas, transient hot wire | 0.01859 W/m/K
389.15 K, 395 kPa, Gas, transient hot wire | 0.01856 W/m/K
389.19 K, 619 kPa, Gas, transient hot wire | 0.01856 W/m/K and 0.01854 W/m/K
389.26 K, 256 kPa, Gas, transient hot wire | 0.01862 W/m/K
389.27 K, 255 kPa, Gas, transient hot wire | 0.0187 W/m/K
389.29 K, 513 kPa, Gas, transient hot wire | 0.01867 W/m/K
389.29 K, 514 kPa, Gas, transient hot wire | 0.01867 W/m/K
389.3 K, 67954 kPa, Liquid, transient hot wire | 0.07227 W/m/K
389.31 K, 53809 kPa, Liquid, transient hot wire | 0.06794 W/m/K
389.31 K, 53833 kPa, Liquid, transient hot wire | 0.06806 W/m/K
389.31 K, 67979 kPa, Liquid, transient hot wire | 0.0723 W/m/K
389.38 K, 396 kPa, Gas, transient hot wire | 0.01859 W/m/K
389.38 K, 397 kPa, Gas, transient hot wire | 0.01856 W/m/K
389.42 K, 40396 kPa, Liquid, transient hot wire | 0.06362 W/m/K
389.42 K, 40406 kPa, Liquid, transient hot wire | 0.06374 W/m/K
389.43 K, 67897 kPa, Liquid, transient hot wire | 0.07231 W/m/K
389.43 K, 67923 kPa, Liquid, transient hot wire | 0.07209 W/m/K
389.48 K, 29881 kPa, Liquid, transient hot wire | 0.05966 W/m/K
389.5 K, 254 kPa, Gas, transient hot wire | 0.01874 W/m/K
389.5 K, 53787 kPa, Liquid, transient hot wire | 0.06829 W/m/K
389.51 K, 255 kPa, Gas, transient hot wire | 0.01838 W/m/K
389.51 K, 53794 kPa, Liquid, transient hot wire | 0.06804 W/m/K
389.53 K, 21435 kPa, Liquid, transient hot wire | 0.05599 W/m/K
389.54 K, 21442 kPa, Liquid, transient hot wire | 0.05607 W/m/K
389.56 K, 40379 kPa, Liquid, transient hot wire | 0.06355 W/m/K
389.56 K, 40384 kPa, Liquid, transient hot wire | 0.06363 W/m/K
389.57 K, 67853 kPa, Liquid, transient hot wire | 0.07219 W/m/K
389.57 K, 67877 kPa, Liquid, transient hot wire | 0.0722 W/m/K
389.58 K, 14725 kPa, Liquid, transient hot wire | 0.05279 W/m/K
389.58 K, 14726 kPa, Liquid, transient hot wire | 0.05278 W/m/K
389.63 K, 29870 kPa, Liquid, transient hot wire | 0.05967 W/m/K
389.63 K, 29871 kPa, Liquid, transient hot wire | 0.05964 W/m/K

Source: the NIST ThermoML archive (doi:10.1021/acs.jced.8b00132)
